Where “and” joins values, the source holds several entries; their conditions need not be identical. Equal entries are not always repeated. Inconclusive results and toxic doses are left out. No stated cut-off is given here; in the data, active means T/C of 150% or more; inactive means T/C below 125%.
Tested on: L1210 leukemia ip in BDF1 mice, survival T/C
Assay: NCI In Vivo Anticancer Drug Screen. Data for tumor model L1210 Leukemia (intraperitoneal) in B6D2F1 (BDF1) mice
Details: endpoint: mean survival time, higher = longer survival
Summary of the method: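 Tumor was transplanted into mice, which were then dosed with test compound or vehicle alone. Survival was recorded for each group, and the treated figure was expressed relative to the control figure.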

[1] = dose: 100.0 mg/kg/injection, schedule: Q01DX001 (ip), vehicle: Klucel (hydroxypropylcellulose) (HPC)
[2] = dose: 100.0 mg/kg/injection, schedule: Q04DX003 (ip), vehicle: Klucel (hydroxypropylcellulose) (HPC)
[3] = dose: 200.0 mg/kg/injection, schedule: Q01DX001 (ip), vehicle: Klucel (hydroxypropylcellulose) (HPC)
[4] = dose: 200.0 mg/kg/injection, schedule: Q04DX003 (ip), vehicle: Klucel (hydroxypropylcellulose) (HPC)
[5] = dose: 400.0 mg/kg/injection, schedule: Q01DX001 (ip), vehicle: Klucel (hydroxypropylcellulose) (HPC)
[6] = dose: 400.0 mg/kg/injection, schedule: Q04DX003 (ip), vehicle: Klucel (hydroxypropylcellulose) (HPC)
[7] = dose: 100.0 mg/kg/injection, schedule: Q01DX009 (ip), vehicle: Klucel (hydroxypropylcellulose) (HPC)
[8] = dose: 200.0 mg/kg/injection, schedule: Q01DX009 (ip), vehicle: Klucel (hydroxypropylcellulose) (HPC)
[9] = dose: 400.0 mg/kg/injection, schedule: Q01DX009 (ip), vehicle: Klucel (hydroxypropylcellulose) (HPC)
[10] = dose: 100.0 mg/kg/injection, schedule: Q04DX003 (ip), vehicle: saline
[11] = dose: 200.0 mg/kg/injection, schedule: Q04DX003 (ip), vehicle: saline
[12] = dose: 400.0 mg/kg/injection, schedule: Q04DX003 (ip), vehicle: saline
[13] = dose: 100.0 mg/kg/injection, schedule: Q01DX009 (ip), vehicle: saline
[14] = dose: 200.0 mg/kg/injection, schedule: Q01DX009 (ip), vehicle: saline
[15] = dose: 5.0 mg/kg/injection, schedule: Q01DX001 (ip), vehicle: saline
[16] = dose: 10.0 mg/kg/injection, schedule: Q01DX001 (ip), vehicle: saline
[17] = dose: 20.0 mg/kg/injection, schedule: Q01DX001 (ip), vehicle: saline
[18] = dose: 40.0 mg/kg/injection, schedule: Q01DX001 (ip), vehicle: saline
[19] = dose: 50.0 mg/kg/injection, schedule: Q01DX009 (ip), vehicle: saline
[20] = dose: 100.0 mg/kg/injection, schedule: Q01DX009 (ip), vehicle: saline with Tween-80
[21] = dose: 200.0 mg/kg/injection, schedule: Q01DX009 (ip), vehicle: saline with Tween-80

Measured: T/C

Cc1ccc2ccccc2c1NCCC(=O)O
inactive: [1] 101 % of control | [2] 104 % of control | [3] 100 % of control | [4] 98 % of control | [5] 91 % of control | [6] 102 % of control

CS(=O)(=O)OCC#CCOS(C)(=O)=O
inactive: dose: 8.0 mg/kg/injection, schedule: Q01DX Z (ip), vehicle: saline 100 % of control | dose: 16.0 mg/kg/injection, schedule: Q01DX Z (ip), vehicle: saline 109 % of control | dose: 32.0 mg/kg/injection, schedule: Q01DX Z (ip), vehicle: saline 105 % of control | dose: 64.0 mg/kg/injection, schedule: Q01DX Z (ip), vehicle: saline 117 % of control

Cc1cc(OC(=O)Nc2ccccc2C)ccc1Cl
inactive: dose: 100.0 mg/kg/injection, schedule: Q04DX002 (ip), vehicle: Klucel (hydroxypropylcellulose) (HPC) 111 % of control | dose: 200.0 mg/kg/injection, schedule: Q04DX002 (ip), vehicle: Klucel (hydroxypropylcellulose) (HPC) 103 % of control | dose: 400.0 mg/kg/injection, schedule: Q04DX002 (ip), vehicle: Klucel (hydroxypropylcellulose) (HPC) 118 % of control

CCCCCCOC(=O)CCC(=O)OCCCCCC
inactive: [7] 97 % of control | [2] 92 % of control | [8] 101 % of control | [4] 92 % of control | [9] 97 % of control | [6] 97 % of control

COCCNC1=C(F)C(=O)C(NCCOC)=C(F)C1=O
inactive: dose: 3.12 mg/kg/injection, schedule: Q04DX003 (ip), vehicle: Klucel (hydroxypropylcellulose) (HPC) 90 % of control | dose: 6.25 mg/kg/injection, schedule: Q04DX003 (ip), vehicle: Klucel (hydroxypropylcellulose) (HPC) 111 % of control | dose: 12.5 mg/kg/injection, schedule: Q04DX003 (ip), vehicle: Klucel (hydroxypropylcellulose) (HPC) 98 % of control | dose: 25.0 mg/kg/injection, schedule: Q04DX003 (ip), vehicle: Klucel (hydroxypropylcellulose) (HPC) 95 % of control | dose: 50.0 mg/kg/injection, schedule: Q04DX003 (ip), vehicle: Klucel (hydroxypropylcellulose) (HPC) 95 % of control | [2] 97 % of control | dose: 150.0 mg/kg/injection, schedule: Q04DX003 (ip), vehicle: Klucel (hydroxypropylcellulose) (HPC) 94 % of control | dose: 225.0 mg/kg/injection, schedule: Q04DX003 (ip), vehicle: Klucel (hydroxypropylcellulose) (HPC) 94 % of control | dose: 335.0 mg/kg/injection, schedule: Q04DX003 (ip), vehicle: Klucel (hydroxypropylcellulose) (HPC) 95 % of control

CCOC(=O)c1ccc([N+](=O)[O-])s1
inactive: [10] 100 % of control | [11] 97 % of control | [12] 111 % of control

Cn1c2ccccc2c(=O)c2cc([N+](=O)[O-])ccc21
inactive: dose: 100.0 mg/kg/injection, schedule: Q04DX003 (ip), vehicle: saline with Tween-80 93 % of control | dose: 200.0 mg/kg/injection, schedule: Q04DX003 (ip), vehicle: saline with Tween-80 97 % of control | dose: 400.0 mg/kg/injection, schedule: Q04DX003 (ip), vehicle: saline with Tween-80 93 % of control

CSc1nc(N)nc(N)n1
inactive: dose: 25.0 mg/kg/injection, schedule: Q01DX009 (ip), vehicle: Klucel (hydroxypropylcellulose) (HPC) 97 % of control | dose: 50.0 mg/kg/injection, schedule: Q01DX009 (ip), vehicle: Klucel (hydroxypropylcellulose) (HPC) 100 % of control | [7] 93 % of control and 90 % of control | [8] 98 % of control

CC(C)(C)c1ccc(OC(=O)Nc2cc(C(F)(F)F)ccc2Cl)c(Br)c1
inactive: [7] 90 % of control | [8] 97 % of control | [9] 97 % of control

CCCCCC[Si](CCCCCC)CCCCCC
inactive: dose: 75.0 mg/kg/injection, schedule: Q04DX003 (ip), vehicle: saline with Tween-80 93 % of control | [13] 102 % of control | dose: 150.0 mg/kg/injection, schedule: Q04DX003 (ip), vehicle: saline with Tween-80 90 % of control | [14] 105 % of control | dose: 300.0 mg/kg/injection, schedule: Q04DX003 (ip), vehicle: saline with Tween-80 88 % of control | dose: 400.0 mg/kg/injection, schedule: Q01DX009 (ip), vehicle: saline 93 % of control

CC(C)(C)C1CC[N-]CC1.CC(C)(C)C1CC[N-]CC1.[Cl][Pt+2]([Cl])([Cl])[Cl]
inactive: dose: 12.5 mg/kg/injection, schedule: Q01DX009 (ip), vehicle: saline 96 % of control | dose: 12.5 mg/kg/injection, schedule: Q04DX003 (ip), vehicle: saline 97 % of control | dose: 25.0 mg/kg/injection, schedule: Q01DX009 (ip), vehicle: saline 92 % of control | dose: 25.0 mg/kg/injection, schedule: Q04DX003 (ip), vehicle: saline 90 % of control | dose: 50.0 mg/kg/injection, schedule: Q04DX003 (ip), vehicle: saline 93 % of control and 99 % of control | [10] 94 % of control and 97 % of control

COc1cc(C[N+]23CC[N+](Cc4cc(OC)cc(OC)c4)(CC2)C3)cc(OC)c1
inactive: [15] 100 % of control | [16] 100 % of control | [17] 103 % of control | [18] 103 % of control | dose: 80.0 mg/kg/injection, schedule: Q01DX001 (ip), vehicle: saline 100 % of control

O=C(c1ccccc1)c1ccco1
inactive: [19] 102 % of control | [13] 91 % of control | [14] 93 % of control

ClCCN(CCCl)c1ccc(CNCCCNCc2ccc(N(CCCl)CCCl)cc2)cc1
inactive: dose: 5.0 mg/kg/injection, schedule: Q01DX001 (ip), vehicle: carboxymethylcellulose (CMC) 105 % of control | dose: 10.0 mg/kg/injection, schedule: Q01DX001 (ip), vehicle: carboxymethylcellulose (CMC) 110 % of control | dose: 20.0 mg/kg/injection, schedule: Q01DX001 (ip), vehicle: carboxymethylcellulose (CMC) 103 % of control

ClCc1cc(Cl)c(Cl)cc1Cl
inactive: dose: 25.0 mg/kg/injection, schedule: Q01DX009 (ip), vehicle: acetone 93 % of control | dose: 50.0 mg/kg/injection, schedule: Q01DX009 (ip), vehicle: acetone 92 % of control | dose: 100.0 mg/kg/injection, schedule: Q01DX009 (ip), vehicle: acetone 90 % of control | dose: 100.0 mg/kg/injection, schedule: Q04DX003 (ip), vehicle: acetone 100 % of control | dose: 150.0 mg/kg/injection, schedule: Q01DX009 (ip), vehicle: acetone 95 % of control

COc1ccc2c(c1)CC=CO2
inactive: dose: 100.0 mg/kg/injection, schedule: Q01DX001 (ip), vehicle: carboxymethylcellulose (CMC) 107 % of control | dose: 200.0 mg/kg/injection, schedule: Q01DX001 (ip), vehicle: carboxymethylcellulose (CMC) 94 % of control | dose: 400.0 mg/kg/injection, schedule: Q01DX001 (ip), vehicle: carboxymethylcellulose (CMC) 100 % of control

Oc1ccc2nocc2c1N=Nc1ccccc1
inactive: dose: 50.0 mg/kg/injection, schedule: Q01DX009 (ip), vehicle: saline with Tween-80 98 % of control | [20] 98 % of control | [21] 95 % of control

CCOC(=O)CNC1=NCCO1
inactive: [20] 91 % of control | [21] 96 % of control | dose: 400.0 mg/kg/injection, schedule: Q01DX009 (ip), vehicle: saline with Tween-80 93 % of control

N=C1SC(c2ccccc2)c2ccccc21 (stereo not drawn)
inactive: [1] 98 % of control | [3] 93 % of control | [5] 95 % of control

C=C=C[P+](c1ccccc1)(c1ccccc1)c1ccccc1
inactive: [15] 104 % of control | [16] 98 % of control | [17] 101 % of control | [18] 124 % of control

S=C([S-])N(Cc1ccccc1)Cc1ccccc1.S=C([S-])N(Cc1ccccc1)Cc1ccccc1.[Zn]
inactive: [19] 104 % of control | [13] 102 % of control | [10] 94 % of control | [14] 104 % of control | [11] 97 % of control | [12] 89 % of control

CCCS/C(N)=N/N=C/c1ccc([N+](=O)[O-])o1
inactive: dose: 50.0 mg/kg/injection, schedule: Q01DX001 (ip), vehicle: other 96 % of control | dose: 100.0 mg/kg/injection, schedule: Q01DX001 (ip), vehicle: other 94 % of control

From PubChem BioAssay AID248 (DTP/NCI, 2004)
